Results published in patent US20250129123A1, “BIOMIMETIC PEPTIDES AND THEIR USE IN BONE REGENERATION” (SILK BIOMATERIALS S.R.L., priority 2021, published 2025).
Ends that are not written are not given here.

What was measured:
[1] = system: human mesenchymal stem cells (MSCs); experiment: Mineralization test (von Kossa staining) of fibroin foams incubated with human mesenchymal stem cells; type: cell-based; settings: presence of MSC (+MSC), complete medium, 7 days, decellularized foams
Experimental: (§1) Human mesenchymal stem cells (MSCs) were purchased from Lonza and cultured in Dulbecco's Modified Eagle's Medium (DMEM), supplemented with 10% MSC Stimulatory Supplement, 100 U/mL penicillin-streptomycin and non-essential amino acids at 37° C. in a fully humidified atmosphere at 5% CO2. The fibroin foams were placed in a 96-well plate, immersed in 70% ethanol for 30 minutes, washed in phosphate buffered saline (PBS) three times, immersed in 100 U/mL penicillin-streptomycin overnight and washed three times in PBS. MSC (10^4/50 μL) were seeded by pipetting onto different points of the foam to improve the distribution of the cells within the foam and allowed to adhere for 30 minutes. Subsequently, 150 μL of complete medium were added to each well. As a negative control, the fibroin foams were kept in the complete cell-free medium. The medium was changed every two days.
(§2) The foams were washed twice with PBS (not containing magnesium/calcium ions) before cell lysis and protein extraction. Cell lysis was performed using the HEPES buffer (50 mM HEPES, pH 7.4, 150 mM NaCl, 10% (v/v) glycerol, 1% (v/v) Triton X-100, 1.5 mM MgCl2, 1 mM EGTA) containing 100 mM NaF, 1 mM NaVO4, 1 μg/mL leupeptin, and 1 μg/mL aprotinin. After 30 minutes on ice, the extracts were centrifuged for 10 minutes at 13,000 g as cell lysate and stored at −20° C. The remaining deposited matrix was washed twice with PBS (not containing magnesium/calcium ions). To fix the matrix on the fibroin foams […] was added in ultrapure water at room temperature for 10 minutes and then two washes with ultrapure water were performed. […]
(§3) The human mesenchymal stem cells (MSCs) were cultured for 7 days in the fibroin foams functionalized with the biomimetic peptides, using a non-functionalized fibroin foam as a reference. […] The extent of calcium deposit was studied by means of von Kossa staining and quantified by image analysis with ImageJ software. […] The threshold was adjusted manually, and the percentage area covered by the signal above the threshold was measured.

[2] = Mineralization test (von Kossa staining) of fibroin foams in complete medium in the absence of cells; settings: absence of MSC (NO MSC), 7 days
Experimental: as §1, §2, §3

[3] = SEM/EDX chemical characterization of fibroin foams incubated in SBF; settings: fibroin foam functionalized with peptide, 14 days, aggregates "Object 10437"
Experimental: […]
The fibroin foam samples were analysed in SEM/EDX in order to morphologically and compositionally identify the mineral formations constituted by calcium and phosphate salts.

Sequence	amount of deposited calcium (percentage area covered by von Kossa staining) versus non-functionalized foam [1]	amount of deposited calcium (percentage area covered by von Kossa staining) versus non-functionalized foam [2]	chemical composition of the crystalline aggregates (SEM/EDX) [3]
SGYEYAWSSESDF	always higher	always higher	–
VNGGYSGYEYAW	always higher	always higher	intense signals of calcium (Ca) and phosphorus (P)
GPYVAHGGYSGYEY	always higher	always higher	–
